Source: patent publication US9351974B2, “Substituted pteridinones for the treatment of cancer” (OSI Pharmaceuticals, LLC, priority 2011, dated 2016)

Molecular target: T1, His-tagged full-length RSK2 (RPS6KA3) (Homo sapiens, UniProt P51812)
T1 construct: His-tagged full-length RSK2 (RPS6KA3, Invitrogen PV3323); His; purchased Invitrogen PV3323
Experiment: RSK2 Omnia Assay for compound IC50 determination
Format: biochemical
Settings: ATP 15 μM, n=2, read-out: Mean RSK2 Biochem IC50
How it was run: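 Continuous fluorescence assay (ex 360/em 485 nm) of SOX-peptide (Omnia ST Peptide 6, 5 μM) phosphorylation with ATP 15 μM (Km 16.3 μM). Enzyme was […], in pH 7.5 HEPES/MgCl2 buffer with 1% DMSO. IC50 came from 11-point threefold dilutions ([…]) by four-parameter fit of initial slopes, in duplicate; Ki by Cheng-Prusoff assuming competitive inhibition.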

T1 sequence (P51812 whole entry): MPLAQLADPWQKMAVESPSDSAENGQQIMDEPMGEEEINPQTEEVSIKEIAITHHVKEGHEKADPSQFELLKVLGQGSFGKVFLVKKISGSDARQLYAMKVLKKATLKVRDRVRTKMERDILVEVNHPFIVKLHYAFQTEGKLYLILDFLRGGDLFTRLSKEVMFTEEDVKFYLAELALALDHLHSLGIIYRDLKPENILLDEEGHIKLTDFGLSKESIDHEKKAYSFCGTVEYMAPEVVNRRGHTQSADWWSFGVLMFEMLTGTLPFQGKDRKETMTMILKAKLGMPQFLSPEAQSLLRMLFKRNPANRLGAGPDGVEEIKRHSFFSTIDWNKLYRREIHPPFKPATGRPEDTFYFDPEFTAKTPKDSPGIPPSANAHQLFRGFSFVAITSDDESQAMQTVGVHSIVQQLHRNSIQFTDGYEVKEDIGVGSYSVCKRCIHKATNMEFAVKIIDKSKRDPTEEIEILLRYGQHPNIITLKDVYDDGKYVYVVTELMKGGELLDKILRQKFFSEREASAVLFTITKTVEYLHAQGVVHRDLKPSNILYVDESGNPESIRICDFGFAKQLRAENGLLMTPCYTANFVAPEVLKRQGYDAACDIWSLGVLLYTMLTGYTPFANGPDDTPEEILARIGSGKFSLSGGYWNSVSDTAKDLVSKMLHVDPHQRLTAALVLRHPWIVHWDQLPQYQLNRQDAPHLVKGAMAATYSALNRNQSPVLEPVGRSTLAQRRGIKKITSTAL

C[C@@H]1C(=O)N(c2ccccc2)c2cnc(Nc3ccc4[nH]ncc4c3)nc2N1C1CCCC1 [Example 66, (7R)-8-cyclopentyl-2-(1H-indazol-5-ylamino)-7-methyl-5-phenyl-7,8-dihydropteridin-6(5H)-one] and C[C@@H]1C(=O)N(c2cccnc2)c2cnc(Nc3ccc4[nH]ncc4c3)nc2N1C1CCCCC1 [Example 23, (7R)-8-cyclohexyl-2-(1H-indazol-5-ylamino)-7-methyl-5-(pyridin-3-yl)-7,8-dihydropteridin-6(5H)-one] cannot be ordered by IC50: no more than 100 nM for the first, no more than 100 nM for the second.

C[C@@H]1C(=O)N(c2ccsc2)c2cnc(Nc3ccc4[nH]ncc4c3)nc2N1C1CCCCC1 [Example 57, (7R)-8-cyclohexyl-2-(1H-indazol-5-ylamino)-7-methyl-5-(thiophen-3-yl)-7,8-dihydropteridin-6(5H)-one] and C[C@@H]1C(=O)N(c2ccc(Cl)cc2)c2cnc(Nc3ccc4[nH]ncc4c3)nc2N1C1CCCCC1 [Example 21, (7R)-5-(4-chlorophenyl)-8-cyclohexyl-2-(1H-indazol-5-ylamino)-7-methyl-7,8-dihydropteridin-6(5H)-one] cannot be ordered by IC50: no more than 100 nM for the first, no more than 100 nM for the second.

Compared with C[C@@H]1C(=O)N(c2cccc(C#N)c2)c2cnc(Nc3ccc4[nH]ncc4c3)nc2N1C1CCCCC1 [Example 29, 3-[(7R)-8-cyclohexyl-2-(1H-indazol-5-ylamino)-7-methyl-6-oxo-7,8-dihydropteridin-5(6H)-yl]benzonitrile], C[C@@H]1C(=O)N(c2cccc(C#N)c2)c2cnc(Nc3ccc4[nH]ncc4c3)nc2N1[C@H]1CC[C@@H](O)CC1 [compound 309, 3-[(7R)-8-(cis-4-hydroxycyclohexyl)-2-(1H-indazol-5-ylamino)-7-methyl-6-oxo-7,8-dihydropteridin-5(6H)-yl]benzonitrile] is higher in IC50: no more than 100 nM for the first, greater than 1000 nM for the second. The first is the more potent here.

C[C@@H]1C(=O)N(c2cccc(C#N)c2)c2cnc(Nc3ccc(C#N)cc3)nc2N1C1CCC(F)(F)CC1 [compound 274, 3-[(7R)-2-[(4-cyanophenyl)amino]-8-(4,4-difluorocyclohexyl)-7-methyl-6-oxo-7,8-dihydropteridin-5(6H)-yl]benzonitrile] and C[C@@H]1C(=O)N(c2cccc(C#N)c2)c2cnc(Nc3ccc(C(=O)O)cc3)nc2N1C1CCC(F)(F)CC1 [compound 269, 4-{[(7R)-5-(3-cyanophenyl)-8-(4,4-difluorocyclohexyl)-7-methyl-6-oxo-5,6,7,8-tetrahydropteridin-2-yl]amino}benzoic acid] cannot be ordered by IC50: 100 to 1000 nM for the first, no more than 100 nM for the second.

CO[C@H]1CC[C@H](N2c3nc(Nc4ccc5[nH]c(=O)oc5c4)ncc3N(c3cccc(C#N)c3)C(=O)[C@H]2C)CC1 [compound 229, 3-[(7R)-8-(trans-4-methoxycyclohexyl)-7-methyl-6-oxo-2-[(2-oxo-2,3-dihydro-1,3-benzoxazol-6-yl)amino]-7,8-dihydropteridin-5(6H)-yl]benzonitrile] and C[C@@H]1C(=O)N(c2cccc(C#N)c2)c2cnc(Nc3cc(F)c(O)c(F)c3)nc2N1[C@H]1CC[C@H](C)CC1 [compound 243, 3-[(7R)-2-[(3,5-difluoro-4-hydroxyphenyl)amino]-7-methyl-8-(trans-4-methylcyclohexyl)-6-oxo-7,8-dihydropteridin-5(6H)-yl]benzonitrile] cannot be ordered by IC50: no more than 100 nM for the first, no more than 100 nM for the second.

COc1ccc(N2C(=O)[C@@H](C)N([C@H]3CC[C@@H](C)CC3)c3nc(Nc4cc(F)c5[nH]ncc5c4)ncc32)cc1OC [compound 238, (7R)-5-(3,4-dimethoxyphenyl)-2-[(7-fluoro-1H-indazol-5-yl)amino]-7-methyl-8-(cis-4-methylcyclohexyl)-7,8-dihydropteridin-6(5H)-one] and COc1ccc(N2C(=O)[C@@H](C)N([C@H]3CC[C@H](C(F)(F)F)CC3)c3nc(Nc4cc(F)c5[nH]ncc5c4)ncc32)cc1OC [compound 258, (7R)-5-(3,4-dimethoxyphenyl)-2-[(7-fluoro-1H-indazol-5-yl)amino]-7-methyl-8-[trans-4-(trifluoromethyl)cyclohexyl]-7,8-dihydropteridin-6(5H)-one] cannot be ordered by IC50: no more than 100 nM for the first, no more than 100 nM for the second.

COc1ccc(N2C(=O)[C@@H](C)N(C3CCCCC3)c3nc(Nc4cc(F)c5[nH]ncc5c4)ncc32)cn1 [compound 138, (7R)-8-cyclohexyl-2-[(7-fluoro-1H-indazol-5-yl)amino]-5-(6-methoxypyridin-3-yl)-7-methyl-7,8-dihydropteridin-6(5H)-one] and C[C@@H]1C(=O)N(c2cccc(F)c2)c2cnc(Nc3cc(F)c4[nH]ncc4c3)nc2N1C1CCCCC1 [compound 137, (7R)-8-cyclohexyl-2-[(7-fluoro-1H-indazol-5-yl)amino]-5-(3-fluorophenyl)-7-methyl-7,8-dihydropteridin-6(5H)-one] cannot be ordered by IC50: no more than 100 nM for the first, no more than 100 nM for the second.

C[C@@H]1C(=O)N(c2ccc3c(c2)OCO3)c2cnc(Nc3ccc4[nH]ncc4c3)nc2N1C1CCCCC1 [Example 39, (7R)-5-(1,3-benzodioxol-5-yl)-8-cyclohexyl-2-(1H-indazol-5-ylamino)-7-methyl-7,8-dihydropteridin-6(5H)-one] and C[C@@H]1C(=O)N(c2cccc(C#N)c2)c2cnc(Nc3cc(F)c4[nH]ncc4c3)nc2N1C1CCC2(CC1)CC2 [Example 297, 3-[(7R)-2-[(7-fluoro-1H-indazol-5-yl)amino]-7-methyl-6-oxo-8-(spiro[2.5]oct-6-yl)-7,8-dihydropteridin-5(6H)-yl]benzonitrile] cannot be ordered by IC50: no more than 100 nM for the first, no more than 100 nM for the second.

First: C[C@@H]1C(=O)N(c2cccc(C#N)c2)c2cnc(Nc3ccc4[nH]ncc4c3F)nc2N1C1CCOCC1 [compound 185, 3-[(7R)-2-[(4-fluoro-1H-indazol-5-yl)amino]-7-methyl-6-oxo-8-(tetrahydro-2H-pyran-4-yl)-7,8-dihydropteridin-5(6H)-yl]benzonitrile]
Second: C[C@@H]1C(=O)N(c2cccc(C#N)c2)c2cnc(Nc3ccc(N)c(C(F)(F)F)c3)nc2N1C1CCC(F)(F)CC1 [compound 275]
The IC50 of the first is lower: no more than 100 nM for the first, greater than 1000 nM for the second. The first is the more potent here.

C[C@@H]1C(=O)N(c2ccc(N3CCCCC3)nc2)c2cnc(Nc3cc(F)c4[nH]ncc4c3)nc2N1C1CCC(C)(C)CC1 [Example 215, (7R)-8-(4,4-dimethylcyclohexyl)-2-[(7-fluoro-1H-indazol-5-yl)amino]-7-methyl-5-[6-(piperidin-1-yl)pyridin-3-yl]-7,8-dihydropteridin-6(5H)-one] gave an IC50 of no more than 100 nM.

Molecular target: T2, His-tagged full length RSK1 (RPS6KA1) (Homo sapiens, UniProt Q15418)
T2 construct: His-tagged full length RSK1 (RPS6KA1, Millipore 14-509); His; purchased Millipore 14-509
T2 sequence (Q15418 whole entry): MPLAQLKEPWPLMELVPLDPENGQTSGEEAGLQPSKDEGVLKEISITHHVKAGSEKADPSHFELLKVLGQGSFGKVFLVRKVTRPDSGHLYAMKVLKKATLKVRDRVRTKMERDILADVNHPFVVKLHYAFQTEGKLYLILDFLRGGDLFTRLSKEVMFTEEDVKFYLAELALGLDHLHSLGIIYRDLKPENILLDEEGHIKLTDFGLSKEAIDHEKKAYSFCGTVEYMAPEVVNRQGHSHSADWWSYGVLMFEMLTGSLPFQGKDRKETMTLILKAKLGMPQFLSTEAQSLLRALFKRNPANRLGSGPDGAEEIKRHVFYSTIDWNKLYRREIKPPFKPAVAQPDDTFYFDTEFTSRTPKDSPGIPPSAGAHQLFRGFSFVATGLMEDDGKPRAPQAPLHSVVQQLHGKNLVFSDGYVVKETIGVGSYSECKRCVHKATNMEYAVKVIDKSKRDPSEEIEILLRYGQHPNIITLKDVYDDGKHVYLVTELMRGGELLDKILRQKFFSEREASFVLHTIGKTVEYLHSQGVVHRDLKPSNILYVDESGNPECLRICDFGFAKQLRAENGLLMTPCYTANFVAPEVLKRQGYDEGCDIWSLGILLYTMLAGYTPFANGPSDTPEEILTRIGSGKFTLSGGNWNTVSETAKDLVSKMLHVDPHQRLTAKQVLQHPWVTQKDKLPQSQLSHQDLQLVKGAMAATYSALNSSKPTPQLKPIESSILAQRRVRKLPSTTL
Experiment: RSK1 Omnia Assay for compound IC50 determination
Format: biochemical
Settings: ATP 15 μM, n=2, read-out: Mean RSK1 Biochem IC50
Description: RSK1 & RSK2 Omnia Assay Protocol for Compound IC50 Determination
The Omnia Assay (Invitrogen) has been optimized for His-tagged full length RSK1 (RPS6KA1, Millipore 14-509) and for His-tagged full-length RSK2 (RPS6KA3, Invitrogen PV3323). In this assay system, Omnia ST Peptide 6 (Invitrogen KNZ1061) functions as a substrate for RSK1 or RSK2. Phosphorylation of this SOX-containing peptide results in an increase in fluorescence at 485 nm upon excitation at 360 nm.
Assays are carried out in 384-well OptiPlates (Perkin Elmer 6007290) in a total volume of 20 μL containing RSK1 ([…]) or RSK2 ([…]), Omnia ST Peptide 6 (5 μM), ATP (15 μM, Km=16.3 μM), and test compound (variable) in RSK assay buffer (50 mM HEPES, pH 7.5, 10 mM MgCl2, 0.01% Tween-20, 1% glycerol, 1 mM DTT, 1 mM EGTA, 0.01% BSA) with 1% DMSO.
IC50s for test compounds are typically determined using an 11-point three-fold serial dilution with a final assay concentration ranging either from 170 μM to […] or from 17 μM to […]. All compound concentrations are assayed in duplicate. Initial compound dilutions are prepared at 100× concentration in 100% DMSO from a 10 mM stock solution. Compounds are further diluted 1:25 in assay buffer resulting in a 4× concentrated solution.
To run the assay 5 μL of the above 4× concentrated compound solution (or 4% DMSO for positive controls) is added to the assay plate followed by 5 μL of a solution containing peptide (20 μM) and ATP (60 μM) in assay buffer. The reaction is initiated by the addition of 10 μL of RSK1 ([…]) or RSK2 ([…]) in assay buffer, or assay buffer alone for negative controls. The increase in fluorescence due to peptide phosphorylation is monitored continuously as a function of time using a Spectramax M5 plate reader (Molecular Devices) equipped with SoftMax Pro software.
The slopes from the linear portion of progress curves are used to determine IC50 values by non-linear curve-fitting to a four-parameter equation using GraphPad Prism (GraphPad Software, Inc.) or XLFit (IDBS). IC50's are determined in duplicate (n=2) and Ki values are calculated from IC50 values using the Cheng-Prusoff equation assuming a competitive mode of inhibition.

C[C@@H]1C(=O)N(c2ccccc2)c2cnc(Nc3ccc4[nH]ncc4c3)nc2N1C1CCCC1 [Example 66, (7R)-8-cyclopentyl-2-(1H-indazol-5-ylamino)-7-methyl-5-phenyl-7,8-dihydropteridin-6(5H)-one] and C[C@@H]1C(=O)N(c2cccnc2)c2cnc(Nc3ccc4[nH]ncc4c3)nc2N1C1CCCCC1 [Example 23, (7R)-8-cyclohexyl-2-(1H-indazol-5-ylamino)-7-methyl-5-(pyridin-3-yl)-7,8-dihydropteridin-6(5H)-one] cannot be ordered by IC50: no more than 100 nM for the first, no more than 100 nM for the second.

C[C@@H]1C(=O)N(c2ccsc2)c2cnc(Nc3ccc4[nH]ncc4c3)nc2N1C1CCCCC1 [Example 57, (7R)-8-cyclohexyl-2-(1H-indazol-5-ylamino)-7-methyl-5-(thiophen-3-yl)-7,8-dihydropteridin-6(5H)-one] and C[C@@H]1C(=O)N(c2cccc(C#N)c2)c2cnc(Nc3ccc4[nH]ncc4c3)nc2N1C1CCCCC1 [Example 29, 3-[(7R)-8-cyclohexyl-2-(1H-indazol-5-ylamino)-7-methyl-6-oxo-7,8-dihydropteridin-5(6H)-yl]benzonitrile] cannot be ordered by IC50: no more than 100 nM for the first, no more than 100 nM for the second.

Test system: RSK1-4
Experiment: not given
Settings: G. P. Sapkota et al., Biochem J., 401, 29-38 (2007); cited from earlier work

For CC(C)CCN1c2nc(Nc3cc(F)c(O)c(F)c3)ncc2N(C)C(=O)C1C (stereo not drawn) [BI-D1870], the “inhibitor of RSK1-4” value is given as “potent inhibitor”.
